Results on four compounds are retold here after publication PMC9795544, “Identifying Novel Inhibitors for Hepatic Organic Anion Transporting Polypeptides by Machine Learning-Based Virtual Screening” (Journal of Chemical Information and Modeling, 2022).

The target of series [1] is T1, OATP1B1 (Homo sapiens, UniProt Q9Y6L6).
T1 construct: expressed in transfected cells; host or cells: A431 cells
T1 sequence (Q9Y6L6 1-691): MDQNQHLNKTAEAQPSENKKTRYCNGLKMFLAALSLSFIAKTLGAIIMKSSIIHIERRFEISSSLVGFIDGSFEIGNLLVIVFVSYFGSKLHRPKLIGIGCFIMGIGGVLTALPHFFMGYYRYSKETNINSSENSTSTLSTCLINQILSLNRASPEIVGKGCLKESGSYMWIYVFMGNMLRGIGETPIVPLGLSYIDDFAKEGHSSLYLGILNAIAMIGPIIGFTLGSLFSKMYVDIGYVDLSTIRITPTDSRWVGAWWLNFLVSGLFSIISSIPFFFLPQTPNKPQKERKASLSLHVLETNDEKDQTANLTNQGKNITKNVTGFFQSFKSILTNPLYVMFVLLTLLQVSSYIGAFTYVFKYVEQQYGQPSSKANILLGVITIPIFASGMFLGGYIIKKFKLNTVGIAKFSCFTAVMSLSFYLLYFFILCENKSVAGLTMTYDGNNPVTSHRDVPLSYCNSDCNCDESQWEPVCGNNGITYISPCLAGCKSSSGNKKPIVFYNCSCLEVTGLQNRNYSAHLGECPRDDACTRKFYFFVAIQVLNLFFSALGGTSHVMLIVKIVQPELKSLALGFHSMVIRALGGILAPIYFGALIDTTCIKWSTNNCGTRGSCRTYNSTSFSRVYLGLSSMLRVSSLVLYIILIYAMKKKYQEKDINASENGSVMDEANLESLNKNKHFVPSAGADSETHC
The experiment in a line: Pyranine transport inhibition in A431 cells overexpressing OATP1B1. In kind it is cell-based. Particulars: initial three-point screen (1, 10, 100 μM), category by concentration needed for 50% inhibition; pyranine 10 μM, 15 min, pH 5.5. The essentials: (§1)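 A431 cells overexpressing the OATP, with mock-transfected controls, incubated at 37 °C with pyranine: 10 μM and 15 min for OATP1B1, 20 μM and 15 min for OATP2B1, 20 μM and 30 min for OATP1B3. Fluorescence read at 460/510 nm. Mock signal subtracted and normalized to the no-compound signal.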

Series [2] addresses T2, OATP2B1 (Homo sapiens, UniProt O94956).
T2 construct: expressed in transfected cells; host or cells: A431 cells
T2 sequence (O94956 1-709): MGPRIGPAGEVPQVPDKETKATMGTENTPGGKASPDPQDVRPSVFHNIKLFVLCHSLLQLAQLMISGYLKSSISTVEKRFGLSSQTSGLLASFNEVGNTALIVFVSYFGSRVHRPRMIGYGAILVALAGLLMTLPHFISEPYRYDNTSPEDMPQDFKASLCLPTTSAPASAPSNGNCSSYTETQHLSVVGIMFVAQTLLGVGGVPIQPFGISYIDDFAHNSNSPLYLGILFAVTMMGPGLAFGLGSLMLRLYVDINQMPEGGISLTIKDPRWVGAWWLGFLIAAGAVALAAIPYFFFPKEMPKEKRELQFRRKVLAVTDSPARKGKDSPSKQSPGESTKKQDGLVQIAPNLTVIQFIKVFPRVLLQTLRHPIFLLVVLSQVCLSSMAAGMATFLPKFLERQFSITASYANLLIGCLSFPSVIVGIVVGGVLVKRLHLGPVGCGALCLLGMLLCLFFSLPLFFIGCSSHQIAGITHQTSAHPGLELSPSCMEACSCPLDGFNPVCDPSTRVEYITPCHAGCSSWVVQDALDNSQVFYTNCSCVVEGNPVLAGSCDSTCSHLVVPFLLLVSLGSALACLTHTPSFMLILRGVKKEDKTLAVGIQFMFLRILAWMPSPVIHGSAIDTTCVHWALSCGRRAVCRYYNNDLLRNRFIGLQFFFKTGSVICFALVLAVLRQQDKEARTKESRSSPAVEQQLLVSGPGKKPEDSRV
Kind of series: Pyranine transport inhibition in A431 cells overexpressing OATP2B1. In kind it is cell-based. Particulars: initial three-point screen (1, 10, 100 μM), category by concentration needed for 50% inhibition; pyranine 20 μM, 15 min, pH 5.5; read-out: IC50 (μM) OATP2B1. The essentials: as §1

The next series concerns the target T3, OATP1B3 (Homo sapiens, UniProt Q9NPD5).
T3 construct: expressed in transfected cells; host or cells: A431 cells
T3 sequence (Q9NPD5 1-702): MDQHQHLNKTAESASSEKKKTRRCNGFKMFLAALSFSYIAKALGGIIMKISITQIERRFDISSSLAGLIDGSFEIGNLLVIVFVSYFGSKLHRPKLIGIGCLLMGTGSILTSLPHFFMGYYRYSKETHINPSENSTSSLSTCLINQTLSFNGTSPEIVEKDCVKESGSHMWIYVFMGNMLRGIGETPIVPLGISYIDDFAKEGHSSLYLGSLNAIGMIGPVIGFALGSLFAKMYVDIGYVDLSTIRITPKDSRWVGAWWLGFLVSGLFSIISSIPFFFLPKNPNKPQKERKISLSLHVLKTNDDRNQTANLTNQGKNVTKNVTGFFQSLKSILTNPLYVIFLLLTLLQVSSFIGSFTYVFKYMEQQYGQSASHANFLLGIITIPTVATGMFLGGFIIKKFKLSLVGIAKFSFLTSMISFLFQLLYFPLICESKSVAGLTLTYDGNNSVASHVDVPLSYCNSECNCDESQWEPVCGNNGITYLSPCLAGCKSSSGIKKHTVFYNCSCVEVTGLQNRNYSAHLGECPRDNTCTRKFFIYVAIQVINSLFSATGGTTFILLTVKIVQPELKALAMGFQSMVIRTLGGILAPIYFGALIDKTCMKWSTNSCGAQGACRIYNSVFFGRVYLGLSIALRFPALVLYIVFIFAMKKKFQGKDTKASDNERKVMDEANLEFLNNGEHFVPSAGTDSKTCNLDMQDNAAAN
Kind of series: Pyranine transport inhibition in A431 cells overexpressing OATP1B3. In kind it is cell-based. Particulars: initial three-point screen (1, 10, 100 μM), category by concentration needed for 50% inhibition; pyranine 20 μM, 30 min, pH 5.5. The essentials: as §1

In series [3] the test system is OATP2B1. Also on record: method as in earlier work. Particulars: ref 1 (Karlgren et al.); cited from earlier work.
The test system of series [4] is OATP2B1. Also on record: method as in PMID 33932771. Particulars: highest affinity inhibitor reported in the literature; cited from earlier work.
The test system of series [5] is OATP1B1. Also on record: method as in earlier work. Particulars: ref 1 (Karlgren et al.); cited from earlier work.

Each structure is given as a SMILES string. Where two headings read alike, the source gives them in different places.

The term IC50 denotes the concentration that gives 50% inhibition. On to `CC(=O)Nc1ccc(S(=O)(=O)Nc2nc3ccccc3nc2NCc2ccccc2)cc1` [H6, CC(=O)Nc1ccc(cc1)S(=O)(=O)Nc2nc3ccccc3nc2NCc4ccccc4], for which the “IC50 (μM) OATP1B1” value on OATP1B1 [1] was “no effect”. In addition, the 50% inhibitory concentration (IC50) at OATP2B1 [2] is greater than 10 µM. In addition, the “IC50 (μM) OATP1B3” value against OATP1B3 is given as “no effect”.

For the compound `C#Cc1cccc(Nc2ncnc3cc(OCCOC)c(OCCOC)cc23)c1` [erlotinib], the IC50 with OATP2B1 [3] is 550 nM. Take `C[C@]12CC[C@@H]3c4cc(P(=O)(O)O)ccc4CC[C@H]3[C@@H]1CCC2=O` [estra-1,3,5(10)-trien-17-on-2-ylphosphonate]: the IC50 in the series on OATP2B1 [4] is 41 nM.

For the compound `CC[C@H](C)C(=O)O[C@H]1C[C@H](O)C=C2C=C[C@H](C)[C@H](CC[C@@H](O)C[C@@H](O)CC(=O)O)[C@H]21` [pravastatin], the IC50 in the series with OATP1B1 [5] was 3.6 µM.
